This passage reports inhibition results from publication PMC6934184, “Selective DNA-PKcs inhibition extends the therapeutic index of localized radiotherapy and chemotherapy” (The Journal of Clinical Investigation, 2019).

The test deals with T1, ALK F1174L (Homo sapiens, UniProt Q9UM73, F1174L).
T1 construct: purchased Thermo Fisher Scientific (Life Technologies) SelectScreen
The test is described as follows: SelectScreen LanthaScreen. In kind it is binding. To be noted: read-out: % displacement. The method, boiled down: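 NU5455 was profiled across the SelectScreen Broad panel of kinase activity and binding assays. Z'LYTE reactions such as CSF1R ran at apparent Km ATP, while the Adapta CAMK1 assay used ATP listed as 10. Values are given as percent.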

Molecules are shown by their SMILES.

T1 sequence (Q9UM73 19-1620 F1174L): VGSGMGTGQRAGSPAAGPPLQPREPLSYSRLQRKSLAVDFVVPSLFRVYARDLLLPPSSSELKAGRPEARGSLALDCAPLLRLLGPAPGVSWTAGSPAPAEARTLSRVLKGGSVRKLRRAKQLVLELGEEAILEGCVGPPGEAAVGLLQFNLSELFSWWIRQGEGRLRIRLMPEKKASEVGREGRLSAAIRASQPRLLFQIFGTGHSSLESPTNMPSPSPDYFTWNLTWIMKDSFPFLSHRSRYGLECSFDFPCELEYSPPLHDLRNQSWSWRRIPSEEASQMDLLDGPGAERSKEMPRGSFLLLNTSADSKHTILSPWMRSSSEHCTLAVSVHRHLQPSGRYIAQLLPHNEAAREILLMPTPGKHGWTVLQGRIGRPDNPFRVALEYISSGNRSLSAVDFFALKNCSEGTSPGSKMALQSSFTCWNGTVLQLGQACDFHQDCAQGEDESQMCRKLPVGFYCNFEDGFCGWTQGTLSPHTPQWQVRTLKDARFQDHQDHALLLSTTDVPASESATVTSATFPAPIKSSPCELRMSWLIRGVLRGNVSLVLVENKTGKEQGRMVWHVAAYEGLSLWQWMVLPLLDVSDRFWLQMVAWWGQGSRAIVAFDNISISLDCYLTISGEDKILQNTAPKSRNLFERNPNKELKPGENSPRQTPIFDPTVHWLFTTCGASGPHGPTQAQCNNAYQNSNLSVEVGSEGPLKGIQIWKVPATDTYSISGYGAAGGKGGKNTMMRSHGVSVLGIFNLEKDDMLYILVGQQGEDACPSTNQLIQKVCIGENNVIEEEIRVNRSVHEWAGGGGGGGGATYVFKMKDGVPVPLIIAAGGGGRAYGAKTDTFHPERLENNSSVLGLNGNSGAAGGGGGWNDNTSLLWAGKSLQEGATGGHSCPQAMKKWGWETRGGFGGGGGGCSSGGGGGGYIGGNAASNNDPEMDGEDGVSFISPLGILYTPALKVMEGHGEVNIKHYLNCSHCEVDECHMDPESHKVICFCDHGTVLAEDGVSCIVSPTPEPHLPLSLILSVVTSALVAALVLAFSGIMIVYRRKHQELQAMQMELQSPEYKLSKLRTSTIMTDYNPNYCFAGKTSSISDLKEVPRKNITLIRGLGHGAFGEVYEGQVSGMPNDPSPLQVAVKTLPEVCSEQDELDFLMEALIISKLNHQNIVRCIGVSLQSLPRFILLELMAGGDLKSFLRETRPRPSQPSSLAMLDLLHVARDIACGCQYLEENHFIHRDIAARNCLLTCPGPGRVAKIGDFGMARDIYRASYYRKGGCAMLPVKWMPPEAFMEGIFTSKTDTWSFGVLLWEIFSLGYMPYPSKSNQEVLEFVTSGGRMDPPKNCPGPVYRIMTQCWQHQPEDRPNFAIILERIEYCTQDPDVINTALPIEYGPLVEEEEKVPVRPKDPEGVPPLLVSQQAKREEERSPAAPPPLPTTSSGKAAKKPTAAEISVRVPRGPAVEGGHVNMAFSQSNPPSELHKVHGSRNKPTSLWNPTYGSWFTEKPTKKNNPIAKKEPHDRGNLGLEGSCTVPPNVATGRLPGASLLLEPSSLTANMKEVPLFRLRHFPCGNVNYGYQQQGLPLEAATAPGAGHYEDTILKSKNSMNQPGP

With `CN(C(=O)CN1CCOCC1)c1ccc2sc3c(-c4cccc5c(=O)cc(N6CC7CCC(C6)O7)oc45)cccc3c2c1` [NU5455], the inhibition at 1 µM was determined as 1.6%.
